These results are taken from patent US9073855B2, “BCL-2 selective apoptosis-inducing agents for the treatment of cancer and immune diseases” (AbbVie Inc., priority 2008, dated 2015).

For one test, the target named is GST-Bcl-2 (Homo sapiens, UniProt P10415). In words: TR-FRET binding assay, GST-Bcl-2 with F-Bak peptide probe. Conditions: for Ki: TR-FRET Binding Affinity, GST-Bcl-2, F-Bak peptide probe; for Binding selectivity ratio (Bcl-XL Ki/Bcl-2 Ki): ratio of TR-FRET Ki values, Bcl-XL over Bcl-2. Put shortly: (§1)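 Compounds were serially diluted in DMSO from a 50 μM starting solution (2× the starting concentration; 10% DMSO). Plates were incubated for 3 h at room temperature, and TR-FRET was read with 340/35 nm excitation and emission at 520/525 nm (F-Bak) and 495/510 nm (Tb antibody). Ki values were calculated using Wang's competitive-binding equation.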
GST-Bcl-2, sequence (P10415 whole entry): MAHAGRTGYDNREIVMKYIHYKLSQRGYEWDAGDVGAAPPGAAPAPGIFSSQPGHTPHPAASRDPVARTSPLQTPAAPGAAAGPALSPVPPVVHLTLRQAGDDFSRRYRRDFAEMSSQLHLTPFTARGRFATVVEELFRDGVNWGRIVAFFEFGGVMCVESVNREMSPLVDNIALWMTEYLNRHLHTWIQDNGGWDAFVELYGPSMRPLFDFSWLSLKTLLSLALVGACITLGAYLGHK
Background: In TR-FRET formats the signal depends on donor and acceptor labels being close together.

The target in a further test is GST-Bcl-XL (Homo sapiens, UniProt Q07817). In words: TR-FRET binding assay, GST-Bcl-XL with F-Bak peptide probe. Conditions: TR-FRET Binding Affinity, GST-Bcl-XL, F-Bak peptide probe. Put shortly: as §1
GST-Bcl-XL, sequence (Q07817 whole entry): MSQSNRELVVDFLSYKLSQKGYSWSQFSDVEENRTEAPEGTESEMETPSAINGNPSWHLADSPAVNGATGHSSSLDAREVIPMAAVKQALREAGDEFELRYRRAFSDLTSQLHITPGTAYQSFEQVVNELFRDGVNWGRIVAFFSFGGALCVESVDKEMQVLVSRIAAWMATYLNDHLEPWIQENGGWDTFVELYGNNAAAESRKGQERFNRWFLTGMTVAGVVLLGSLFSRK

Where only a bound is given, the exact number is not on record here.

In general, Ki refers to the equilibrium dissociation constant of an inhibitor or competing ligand from its target.

With `CC1(C)CCC(CN2CCN(c3ccc(C(=O)NS(=O)(=O)c4cnc(OCCN5CCOCC5)c(C#N)c4)c(Oc4cccc5[nH]ccc45)c3)CC2)=C(c2ccc(Cl)cc2)C1` [Example 392, 4-(4-{[2-(4-chlorophenyl)-4,4-dimethylcyclohex-1-en-1-yl]methyl}piperazin-1-yl)-N-{[5-cyano-6-(2-morpholin-4-ylethoxy)pyridin-3-yl]sulfonyl}-2-(1H-indol-4-yloxy)benzamide], on GST-Bcl-2, the affinity corresponds to a Ki of 0.38 nM and the “Binding selectivity ratio (Bcl-XL Ki/Bcl-2 Ki)” value (“Binding selectivity ratio” for short) is 320.2. On GST-Bcl-XL, the affinity, expressed as Ki, was 122 nM.

`CC1(C)CCC(CN2CCN(c3ccc(C(=O)NS(=O)(=O)c4cnc(OCC5(F)CCOCC5)c(C#N)c4)c(Oc4cccc5[nH]ccc45)c3)CC2)=C(c2ccc(Cl)cc2)C1` [Example 393, 4-(4-{[2-(4-chlorophenyl)-4,4-dimethylcyclohex-1-en-1-yl]methyl}piperazin-1-yl)-N-({5-cyano-6-[(4-fluorotetrahydro-2H-pyran-4-yl)methoxy]pyridin-3-yl}sulfonyl)-2-(1H-indol-4-yloxy)benzamide]: on GST-Bcl-2, the affinity, expressed as Ki, was 0.083 nM and the “Binding selectivity ratio” value amounted to 1109.6. At GST-Bcl-XL, the affinity, expressed as Ki, was 92.1 nM.

Take `COc1ccc(Nc2ccc(S(=O)(=O)NC(=O)c3ccc(N4CCN(CC5=C(c6ccc(Cl)cc6)CC(C)(C)CC5)CC4)cc3Oc3ccc4[nH]ccc4c3)cc2[N+](=O)[O-])cc1O` [Example 394, 4-(4-{[2-(4-chlorophenyl)-4,4-dimethylcyclohex-1-en-1-yl]methyl}piperazin-1-yl)-N-({4-[(3-hydroxy-4-methoxyphenyl)amino]-3-nitrophenyl}sulfonyl)-2-(1H-indol-5-yloxy)benzamide]: on GST-Bcl-2, the Ki was determined as 2.51 nM and the “Binding selectivity ratio” value is reported as >263262.9. Moreover, on GST-Bcl-XL, the Ki is > 660000 nM.

Take `CN1CCC(Nc2ccc(S(=O)(=O)NC(=O)c3ccc(N4CCN(CC5=C(c6ccc(Cl)cc6)CC(C)(C)CC5)CC4)cc3Oc3cccc4c3CCN4)cc2[N+](=O)[O-])CC1` [Example 395, 4-(4-{[2-(4-chlorophenyl)-4,4-dimethylcyclohex-1-en-1-yl]methyl}piperazin-1-yl)-2-(2,3-dihydro-1H-indol-4-yloxy)-N-({4-[(1-methylpiperidin-4-yl)amino]-3-nitrophenyl}sulfonyl)benzamide]: at GST-Bcl-2, the affinity, expressed as Ki, was 0.798 nM and the “Binding selectivity ratio” value is given as 23.6. On GST-Bcl-XL, this compound returned a Ki of 18.8 nM.

With `CC1(C)CCC(CN2CCN(c3ccc(C(=O)NS(=O)(=O)c4ccc(NC5CCN(C6CCOCC6)CC5)c([N+](=O)[O-])c4)c(Nc4cccnc4)c3)CC2)=C(c2ccc(Cl)cc2)C1` [Example 397, 4-(4-{[2-(4-chlorophenyl)-4,4-dimethylcyclohex-1-en-1-yl]methyl}piperazin-1-yl)-N-({3-nitro-4-[(1-tetrahydro-2H-pyran-4-ylpiperidin-4-yl)amino]phenyl}sulfonyl)-2-(pyridin-3-ylamino)benzamide], on GST-Bcl-2, affinity was put at a Ki of 23 nM and the “Binding selectivity ratio” value was >28730.6. Besides, the Ki on GST-Bcl-XL is > 660000 nM.

For `CC1(C)CCC(CN2CCN(c3ccc(C(=O)NS(=O)(=O)c4cnc(NCC5(F)CCOCC5)c(Cl)c4)c(Oc4cccc5[nH]ncc45)c3)CC2)=C(c2ccc(Cl)cc2)C1` [Example 413, N-[(5-chloro-6-{[(4-fluorotetrahydro-2H-pyran-4-yl)methyl]amino}pyridin-3-yl)sulfonyl]-4-(4-{[2-(4-chlorophenyl)-4,4-dimethylcyclohex-1-en-1-yl]methyl}piperazin-1-yl)-2-(1H-indazol-4-yloxy)benzamide], at GST-Bcl-2, the affinity corresponds to a Ki of 0.12 nM and the “Binding selectivity ratio” value amounted to 803.8. Further, the affinity at GST-Bcl-XL, expressed as Ki, was 96.8 nM.

For the compound `CO[C@H]1CC[C@H](COc2ncc(S(=O)(=O)NC(=O)c3ccc(N4CCN(CC5=C(c6ccc(Cl)cc6)CC(C)(C)CC5)CC4)cc3Oc3cccc4[nH]ncc34)cc2Cl)CC1` [Example 414, Trans-N-({5-chloro-6-[(4-methoxycyclohexyl)methoxy]pyridin-3-yl}sulfonyl)-4-(4-{[2-(4-chlorophenyl)-4,4-dimethylcyclohex-1-en-1-yl]methyl}piperazin-1-yl)-2-(1H-indazol-4-yloxy)benzamide], the Ki on GST-Bcl-2 was found to be 0.007 nM; on GST-Bcl-XL, 95.6 nM.

Regarding `CC1(C)CCC(CN2CCN(c3ccc(C(=O)NS(=O)(=O)c4ccc(NCC5CN(CC(F)F)CCO5)c([N+](=O)[O-])c4)c(Oc4cccc5[nH]cnc45)c3)CC2)=C(c2ccc(Cl)cc2)C1` (stereo not shown) [Example 415, 2-(1H-benzimidazol-4-yloxy)-4-(4-{[2-(4-chlorophenyl)-4,4-dimethylcyclohex-1-en-1-yl]methyl}piperazin-1-yl)-N-{[4-({[4-(2,2-difluoroethyl)morpholin-2-yl]methyl}amino)-3-nitrophenyl]sulfonyl}benzamide], the inhibitory constant (Ki) is 0.002 nM on GST-Bcl-2 and 26.9 nM on GST-Bcl-XL. Besides, at GST-Bcl-2, the “Binding selectivity ratio” value stood at 17326.9.

`CC1(C)CCC(CN2CCN(c3ccc(C(=O)NS(=O)(=O)c4cnc(OCC5(F)CCOCC5)c(F)c4)c(Oc4cccc5[nH]ncc45)c3)CC2)=C(c2ccc(Cl)cc2)C1` [Example 416, 4-(4-{[2-(4-chlorophenyl)-4,4-dimethylcyclohex-1-en-1-yl]methyl}piperazin-1-yl)-N-({5-fluoro-6-[(4-fluorotetrahydro-2H-pyran-4-yl)methoxy]pyridin-3-yl}sulfonyl)-2-(1H-indazol-4-yloxy)benzamide]: the figures for the inhibitory constant (Ki) at GST-Bcl-2 and on GST-Bcl-XL were 0.023 nM and 59.1 nM, respectively.

On to `CC1(C)CCC(CN2CCN(c3ccc(C(=O)NS(=O)(=O)c4ccc(NC5CCN(C6CCOCC6)CC5)c([N+](=O)[O-])c4)c(Oc4cccc5[nH]cnc45)c3)CC2)=C(c2ccc(Cl)cc2)C1` [Example 417, 2-(1H-benzimidazol-4-yloxy)-4-(4-{[2-(4-chlorophenyl)-4,4-dimethylcyclohex-1-en-1-yl]methyl}piperazin-1-yl)-N-({3-nitro-4-[(1-tetrahydro-2H-pyran-4-ylpiperidin-4-yl)amino]phenyl}sulfonyl)benzamide], for which the Ki at GST-Bcl-2 came out at 0.046 nM; on GST-Bcl-XL, 3.99 nM. The “Binding selectivity ratio” value on GST-Bcl-2 is 87.1.

Consider `CN1CCC(Nc2ccc(S(=O)(=O)NC(=O)c3ccc(N4CCN(CC5=C(c6ccc(Cl)cc6)CC(C)(C)CC5)CC4)cc3Oc3cccc4[nH]cnc34)cc2[N+](=O)[O-])CC1` [Example 418, 2-(1H-benzimidazol-4-yloxy)-4-(4-{[2-(4-chlorophenyl)-4,4-dimethylcyclohex-1-en-1-yl]methyl}piperazin-1-yl)-N-({4-[(1-methylpiperidin-4-yl)amino]-3-nitrophenyl}sulfonyl)benzamide], for which, on GST-Bcl-2, affinity was put at a Ki of 0.004 nM and the “Binding selectivity ratio” value turned out to be 404.7. This compound also returned a Ki on GST-Bcl-XL of 1.57 nM.

With `CC1(C)CCC(CN2CCN(c3ccc(C(=O)NS(=O)(=O)c4cnc(OCC5(F)CCN(CC#N)CC5)c(Cl)c4)c(Oc4cccc5[nH]ncc45)c3)CC2)=C(c2ccc(Cl)cc2)C1` [Example 419, N-[(5-chloro-6-{[1-(cyanomethyl)-4-fluoropiperidin-4-yl]methoxy}pyridin-3-yl)sulfonyl]-4-(4-{[2-(4-chlorophenyl)-4,4-dimethylcyclohex-1-en-1-yl]methyl}piperazin-1-yl)-2-(1H-indazol-4-yloxy)benzamide], the results for the Ki on GST-Bcl-2 and at GST-Bcl-XL were 0.197 nM and 211 nM, respectively. Moreover, at GST-Bcl-2, the “Binding selectivity ratio” value is listed as 1070.8.

Regarding `CC1(C)CCC(CN2CCN(c3ccc(C(=O)NS(=O)(=O)c4cnc(OCC5CCOC5)c(Cl)c4)c(Oc4cccc5[nH]ncc45)c3)CC2)=C(c2ccc(Cl)cc2)C1` (stereo not shown) [Example 420, 4-(4-{[2-(4-chlorophenyl)-4,4-dimethylcyclohex-1-en-1-yl]methyl}piperazin-1-yl)-N-{[5-chloro-6-(tetrahydrofuran-3-ylmethoxy)pyridin-3-yl]sulfonyl}-2-(1H-indazol-4-yloxy)benzamide], the Ki on GST-Bcl-2 was found to be 0.063 nM; on GST-Bcl-XL, 72.1 nM. Besides, on GST-Bcl-2, the “Binding selectivity ratio” value is 1153.3.

As for `CC1(C)CCC(CN2CCN(c3ccc(C(=O)NS(=O)(=O)c4cnc(OC[C@H]5CC[C@H](O)CC5)c(Cl)c4)c(Oc4cccc5[nH]ncc45)c3)CC2)=C(c2ccc(Cl)cc2)C1` [Example 421, Trans-N-({5-chloro-6-[(4-hydroxycyclohexyl)methoxy]pyridin-3-yl}sulfonyl)-4-(4-{[2-(4-chlorophenyl)-4,4-dimethylcyclohex-1-en-1-yl]methyl}piperazin-1-yl)-2-(1H-indazol-4-yloxy)benzamide], on GST-Bcl-2, the Ki is 0.026 nM and the “Binding selectivity ratio” value turned out to be 2089.5. Besides, at GST-Bcl-XL, affinity was put at a Ki of 54 nM.

On to `CC1(C)CCC(CN2CCN(c3ccc(C(=O)NS(=O)(=O)c4cnc(O[C@@H]5CCN(CC(F)F)C5)c(Cl)c4)c(Oc4cccc5[nH]ncc45)c3)CC2)=C(c2ccc(Cl)cc2)C1` [Example 422, N-[(5-chloro-6-{[(3R)-1-(2,2-difluoroethyl)pyrrolidin-3-yl]oxy}pyridin-3-yl)sulfonyl]-4-(4-{[2-(4-chlorophenyl)-4,4-dimethylcyclohex-1-en-1-yl]methyl}piperazin-1-yl)-2-(1H-indazol-4-yloxy)benzamide], for which the inhibition constant (Ki) on GST-Bcl-2 was 0.071 nM; on GST-Bcl-XL, 290 nM. The “Binding selectivity ratio” value at GST-Bcl-2 was found to be 4073.4.

Regarding `CN(C)CC(=O)N1CCO[C@H](COc2ncc(S(=O)(=O)NC(=O)c3ccc(N4CCN(CC5=C(c6ccc(Cl)cc6)CC(C)(C)CC5)CC4)cc3Oc3cccc4[nH]cnc34)cc2Cl)C1` [Example 423, 2-(1H-benzimidazol-4-yloxy)-N-[(5-chloro-6-{[(2S)-4-(N,N-dimethylglycyl)morpholin-2-yl]methoxy}pyridin-3-yl)sulfonyl]-4-(4-{[2-(4-chlorophenyl)-4,4-dimethylcyclohex-1-en-1-yl]methyl}piperazin-1-yl)benzamide], on GST-Bcl-2, the Ki was < 0.01 nM and the “Binding selectivity ratio” value came out at 756.6. The same compound showed a Ki on GST-Bcl-XL of 7.57 nM.
